The values that follow come from US7135303B2, “Regulators of type-1 tumor necrosis factor receptor and other cytokine receptor shedding” (The United States of America as represented by the …, priority 2000, dated 2006).

What is called Km is the substrate concentration at which the rate is half of its maximum. Broadly, the kcat/Km is the turnover number divided by the Michaelis constant.

Common to all, as to experiment: ARTS-1 aminopeptidase activity assay (amide bond hydrolysis of amino acid p-nitroanilide substrates, absorbance at 380 nm)
In data set [1] the target is T1, recombinant GST-ARTS-1 fusion protein (Homo sapiens, UniProt Q9NZ08).
T1 construct: ARTS-1 extracellular domain (i.e., the ectodomain; amino acids 30–941) was PCR amplified; made in house
It counts as biochemical. The conditions noted are these: for Vmax: aa-pNA substrate 0.25 to 8 mM, 24 pmoles GST-ARTS-1, 50 mM Tris pH 7.5, room temperature, 1 hour; for Vmax / Km: Lineweaver-Burk; for kcat / Km: aa-pNA substrate with GST-ARTS-1; for aminopeptidase activity of recombinant GST-ARTS-1 against the amino acid substrate: acidic or basic amino acid p-nitroanilide substrates. On the procedure: (§1) To accomplish this, commercially available amino acid p-nitroanilide substrates were incubated with purified GST-ARTS-1 fusion protein for 1 hour under conditions of linear enzyme activity over time. The rate of amide bond hydrolysis was determined by measuring the absorbance of the p-nitroaniline aminopeptidase reaction product at 380 nm. Each experimental point was run in triplicate and each determination utilized six concentrations of amino acid p-nitroanilide substrate. Kinetic constants were determined by Lineweaver-Burk analysis. Correlation coefficients for each line generated were greater than 0.997. Each amino acid p-nitroaniline substrate tested is shown in the left colurnr, along with its polar/non-polar/acidic/basic nature. Vmax is a measure of the theoretical enzyme maximal velocity, Km is the Michaelis-Menten constant for each ARTS-1/substrate combination, kcat is the first order rate constant (i.e., the turnover number) for the ARTS-1/substrate combination, and kcat/Km is the second order rate constant for the ARTS-1/substrate combination (i.e., a measure of overall catalytic efficiency).
(§2) Aminopeptidase activity of the recombinant GST-ARTS-1 fusion protein was assessed by determination of the rate of amide bond hydrolysis of amino acid p-nitroanilide substrates (Bachem). Amino acid p-nitroanilides (final concentrations 0.25 to 8 mM) were incubated at room temperature with 24 pmoles of GST-ARTS-1 fusion protein in 200 μl of 50 mM Tris, pH 7.5 for 1 hour. Reactions were terminated by addition of 280 μl of 3M sodium acetate (pH 5.2). The rate of amide bond hydrolysis was determined by measuring the absorbance of p-nitroaniline at 380 nm (See, Table 3, supra). Spontaneous hydrolysis of the substrate was corrected for by subtracting the absorbance of control incubations which were terminated immediately. Kinetic constants were determined by Lineweaver-Burk analysis. Each experimental point was assayed in triplicate and each determination utilized six concentrations of each amino acid p-nitroanilide substrate. Correlation coefficients for each line generated were greater than 0.997.

Substrate in data set [2]: NCC(=O)Nc1ccc([N+](=O)[O-])cc1
It counts as biochemical, human. Particulars: other: aa-pNA substrate with GST-ARTS-1; Lineweaver-Burk. As to the method:
as §1, §2

Substrate in data set [3]: N[C@@H](Cc1ccccc1)C(=O)Nc1ccc([N+](=O)[O-])cc1
In kind it is biochemical, human. Particulars: other: aa-pNA substrate with GST-ARTS-1; Lineweaver-Burk. On the procedure: as §1, §2

Substrate in data set [4]: CC[C@H](C)[C@H](N)C(=O)Nc1ccc([N+](=O)[O-])cc1
It counts as biochemical, human. The conditions noted are these: other: aa-pNA substrate with GST-ARTS-1; Lineweaver-Burk. As to the method:
as §1, §2

On to `CSCC[C@H](N)C(=O)Nc1ccc([N+](=O)[O-])cc1` [Met], for which, in data set [1], the Vmax turned out to be 13.36 ± 0.75 pmol/pmol/min, the kcat came to 22.27 ± 1.25 s^−1 × 10^−2 and the Km is 7.71 ± 0.43 mM.

As to `CC[C@H](C)[C@H](N)C(=O)Nc1ccc([N+](=O)[O-])cc1` [Ile, isoleucine p-nitroanilide], the Vmax in data set [1] is given as 5.81 ± 0.87 pmol/pmol/min.

As to `N[C@@H](Cc1ccccc1)C(=O)Nc1ccc([N+](=O)[O-])cc1` [Phe, phenylalanine p-nitroanilide], the Vmax in data set [1] is on record as 5.14 ± 0.04 pmol/pmol/min.

As to `N[C@@H](CCC(=O)O)C(=O)Nc1ccc([N+](=O)[O-])cc1` [Glu], in data set [1], the Vmax entry is listed as “No Activity”, the kcat entry is given as “No Activity” and the “aminopeptidase activity of recombinant GST-ARTS-1 against the amino acid substrate” value (“aminopeptidase activity” below) is “no activity”.

For `NCCCC[C@H](N)C(=O)Nc1ccc([N+](=O)[O-])cc1` [Lys], in data set [1], the Vmax entry is listed as “No Activity”, the kcat result is given as “No Activity” and the “aminopeptidase activity” value is recorded as “no activity”.

Regarding `CC(C)[C@H](N)C(=O)Nc1ccc([N+](=O)[O-])cc1` [Val], in data set [1], the Vmax turned out to be 5.31 ± 0.31 pmol/pmol/min, the kcat was 8.85 ± 0.52 s^−1 × 10^−2 and the Km worked out at 5.69 ± 0.26 mM.

Consider `NCC(=O)Nc1ccc([N+](=O)[O-])cc1` [Gly, glycine p-nitroanilide], for which the Vmax in data set [1] is on record as 8.67 ± 0.05 pmol/pmol/min.

On to `O=C(Nc1ccc([N+](=O)[O-])cc1)[C@@H]1CCCN1` [Pro], for which, in data set [1], the Vmax came out at 5.29 ± 0.08 pmol/pmol/min, the kcat was found to be 8.82 ± 0.13 s^−1 × 10^−2 and the Km is 4.68 ± 0.06 mM.

`CC(C)C[C@H](N)C(=O)Nc1ccc([N+](=O)[O-])cc1` [Leu]: in data set [1], the Vmax came to 9.45 ± 0.43 pmol/pmol/min, the kcat was 15.75 ± 0.72 s^−1 × 10^−2 and the Km came to 5.26 ± 0.25 mM.

On to `N[C@@H](CC(=O)O)C(=O)Nc1ccc([N+](=O)[O-])cc1` [Asp], for which, in data set [1], the Vmax entry is on record as “No Activity”, the kcat entry was “No Activity” and the “aminopeptidase activity” value is listed as “no activity”.

Consider `N=C(N)NCCC[C@H](N)C(=O)Nc1ccc([N+](=O)[O-])cc1` [Arg], for which, in data set [1], the Vmax entry is “No Activity”, the kcat entry is on record as “No Activity” and the “aminopeptidase activity” value is recorded as “no activity”.

For `N[C@@H](Cc1cnc[nH]1)C(=O)Nc1ccc([N+](=O)[O-])cc1` [His], in data set [1], the Vmax entry is on record as “No Activity”, the kcat entry is “No Activity” and the “aminopeptidase activity” value is reported as “no activity”.

In the case of `C[C@H](N)C(=O)Nc1ccc([N+](=O)[O-])cc1` [Ala], in data set [1], the Vmax worked out at 26.18 ± 0.24 pmol/pmol/min, the kcat is given as 43.63 ± 0.40 s^−1 × 10^−2 and the Michaelis-Menten constant (Km) worked out at 16.8 ± 0.18 mM.

For the molecule `N[C@@H](CS)C(=O)Nc1ccc([N+](=O)[O-])cc1` [Cys], in data set [1], the Vmax was determined as 8.95 ± 0.31 pmol/pmol/min, the kcat is 14.92 ± 0.52 s^−1 × 10^−2 and the Km was 4.57 ± 0.2 mM.

B1: recombinant GST-ARTS-1 fusion protein (Homo sapiens) (protein)
chain: SWCQSTEASPKRSDGTPFPWNKIRLPEYVIPVHYDLLIHANLTTLTFWGTTKVEITASQPTSTIILHSHHLQISRATLRKGAGERLSEEPLQVLEHPRQEQIALLAPEPLLVGLPYTVVIHYAGNLSETFHGFYKSTYRTKEGELRILASTQFEPTAARMAFPCFDEPAFKASFSIKIRREPRHLAISNMPLVKSVTVAEGLIEDHFDVTVKMSTYLVAFIISDFESVSKITKSGVKVSVYAVPDKINQADYALDAAVTLLEFYEDYFSIPYPLPKQDLAAIPDFQSGAMENWGLTTYRESALLFDAEKSSASSKLGITMTVAHELAHQWFGNLVTMEWWNDLWLNEGFAKFMEFVSVSVTHPELKVGDYFFGKCFDAMEVDALNSSHPVSTPVENPAQIREMFDDVSYDKGACILNMLREYLSADAFKSGIVQYLQKHSYKNTKNEDLWDSMASICPTDGVKGMDGFCSRSQHSSSSSHWHQEGVDVKTMMNTWTLQKGFPLITITVRGRNVHMKQEHYMKGSDGAPDTGYLWHVPLTFITSKSDMVHRFLLKTKTDVLILPEEVEWIKFNVGMNGYYIVHYEDDGWDSLTGLLKGTHTAVSSNDRASLINNAFQLVSIGKLSIEKALDLSLYLKHETEIMPVFQGLNELIPMYKLMEKRDMNEVETQFKAFLIRLLRDLIDKQTWTDEGSVSERMLRSQLLLLACVHNYQPCVQRAEGYFRKWKESNGNLSLPVDVTLAVFAVGAQSTEGWDFLYSKYQFSLSSTEKSQIEFALCRTQNKEKLQWLLDESFKGDKIKTQEFPQILTLIGRNPVGYPLAWQFLRKNWNKLVQKFELGSSSIAHMVMGTTNQFSTRTRLEEVKGFFSSLKENGSQLRCVQQTIETIEENIGWMDKNFDKIRVWLQSEKLERM
notes: ARTS-1 extracellular domain (i.e., the ectodomain; amino acids 30–941) was PCR amplified; made in house
On to B1, for which the Km worked out at 3.67 ± 0.03 mM in data set [2], 1.66 ± 0.03 mM in data set [3] and 1.67 ± 0.02 mM in data set [4]. Further, the kcat is 0.1445 ± 0.0008 s⁻¹ in data set [2], 0.0857 ± 0.0006 s⁻¹ in data set [3] and 0.0968 ± 0.0015 s⁻¹ in data set [4]. The kcat/Km in data set [2] was found to be 39.4 M⁻¹ s⁻¹; in data set [3], 51.6 M⁻¹ s⁻¹; in data set [4], 58 M⁻¹ s⁻¹.
